Reference: patent US20110319360A1, “Method of including apoptosis/Cell death in leukemia cell using a purine nucleoside analogue” (U.S. Department of Veterans Affairs, priority 2010, published 2011)
Read-outs that look alike come from different tables or passages of the source.

Tests used:
normal PBMCs [1] = assay: MTS cytotoxicity assay on PBMCs from normal donors; type: cell-based, human; settings: for EC50: Homo sapiens, PBMC, read-out: ED50 (μM), PBMC
Procedure: For toxicity studies involving normal blood cells, normal volunteers were enrolled in an IRB-approved protocol for blood collection. PBMCs were isolated from heparin-anticoagulated blood by ficoll-Hypaque density gradient centrifugation.
(§1) 2.5×10^5 CLL cells were incubated in triplicate or quadruplicate in a 96-well tissue culture plate (Costar, Corning, N.Y.) with serial dilutions of LMP-420, fludarabine, and/or recombinant TNF-alpha (R&D Systems, Minneapolis, Minn.) in Hybridoma serum free media (SFM) (GIBCO/Invitrogen, Carlsbad, Calif.) containing 10% heat-inactivated fetal bovine serum (FBS) (Sigma) at 37° C. with 5% CO2. After 72 hours, 20 μl CellTiter 96® AQueous One Solution Cell Proliferation Assay (Promega, Madison, Wis.) MTS (3-(4,5 dimethylthiazol-2-yl)-5-(3-carboxymethoxyphenyl-2-(4-sulfophenyl)-2H-tetrazolium) reagent was added to each well and the absorbance was read at 490 nm on a Thermomax microplate reader (Molecular Devices, Sunnyvale, Calif.). We calculated fractional cytotoxicity as performed previously (Reference 12), comparing absorbance at 490 nm from treated cells to control cells incubated with media alone.
(§2) The concentration effective at killing 50% of CLL cells compared to media alone (ED50) was calculated when 50% fractional cytotoxicity occurred within the range of serial dilutions tested (Reference 12). If the ED50 fell below or above this range, it was set to either the lowest or the highest concentration tested, respectively, for the purposes of statistical analyses and graphical representation.

normal PBMCs [2] = assay: [3H]-thymidine proliferation assay, mitogen-stimulated normal PBMCs; type: cell-based, human; settings: Homo sapiens, PBMC, 96 h
Procedure: CLL cells (2×10^5 cells/well) were cultured in quadruplicate in a volume of 200 μl in 96-well tissue culture plates for 96 hours with 1 μM CpG-oligodeoxynucleotides (ODN) DSP30 (Reference 14) (Midland Certified Reagent Company, Midland, Tex.) and 100 units/ml IL-2 (R&D Systems) in the presence or absence of drug. As controls, cells were treated with media without DSP30/IL-2. Cells were incubated with 1 μCi/well [methyl-^3H]-thymidine (specific activity 6.7 Ci/mmol, PerkinElmer, Waltham, Mass., USA) for 14-18 hours prior to harvesting onto glass-fiber filters using a semi-automated cell harvester. [^3H]-thymidine incorporation was measured as counts per minute (cpm) using a Tri-Carb 2100 timed-resolved liquid scintillation counter (PerkinElmer). The same protocol was utilized for proliferation assays with normal PBMCs, with the exception that growth was stimulated by treatment with 10 μg/ml Phytohemagglutinin-P (PHA, Sigma), 5 μg/ml concanavalin A (ConA, Sigma), 2 μg/ml pokeweed mitogen (PWM, Sigma), 25 ng/ml muromonab-CD3 (α-CD3, Ortho Pharmaceuticals, Raritan, N.J.), or 50 ng/ml phorbol myristate acetate (PMA, Sigma) plus 1 μg/ml ionomycin (iono, Sigma) for 96 hours. Proliferation is reported as percent of control (drug-treated cpm/control-treated cpm×100%).

[3] = tested on: CD34+ hematopoietic progenitor cells (myeloid colonies); assay: Colony formation assay, myeloid colonies; type: cell-based, human; settings: Homo sapiens, 336 h, read-out: mean IC50 for normal myeloid colony formation
Procedure: (§3) CD34^+ hematopoietic progenitor cells were isolated from PBMCs from two healthy donors using the CD34 Microbead Kit (Miltenyi Biotec, Auburn, Calif.). 10^3 CD34^+-enriched cells were cultured in a 35 mm culture plate (1000 cells/plate) with or without LMP-420 or fludarabine in 1.1 ml Human Methylcellulose Complete Media (R&D Systems) according to the manufacturer's protocol. Plates were incubated for 14 days at 37° C. in humidified 5% CO2. Each treatment group was tested in triplicate. Colonies on plates were scored by two independent observers, blinded to the treatment groups, by microscopic evaluation under 10× and 20× power. Colonies were categorized as being of either erythroid or myeloid lineage.

CD3-positive T-cell = assay: Annexin V apoptosis of normal T-lymphocytes in PBMCs; type: cell-based, human; settings: 72 hours
Procedure: (§4) PBMCs were cultured at 10^6 cells/ml in a 12-well tissue culture plate. Cells were treated for 72 hours with vehicle control or drug for 72 hours, then harvested as above for staining. PBMCs were resuspended at 2×10^5 cells/tube in 100 μl buffer (HBSS, 0.5% bovine serum albumin, 0.1% sodium azide) and incubated for 30 min with CD3-FITC or CD19-FITC antibodies according to the manufacturer's protocol (BD Biosciences). Cells were then incubated with PE-annexin V and 7-AAD (BD Biosciences) in annexin V binding buffer (BD Biosciences) for 15 minutes prior to analysis of apoptosis on the Guava EasyCyte™ Plus system.

CLL cells = assay: MTS cytotoxicity assay on primary CLL cells; type: cell-based; settings: Homo sapiens, CLL cell, 72 h
Procedure: On the same day that heparin-anticoagulated venous blood was collected from participants, CLL cells were purified by methods described previously (Reference 11). Briefly, CLL cells were isolated from whole blood using the RosetteSep® B-cell enrichment cocktail (Stem Cell Technologies, Vancouver, BC, Canada) together with ficoll-Hypaque density gradient centrifugation. This method yielded CLL cell purity of greater than 95% CD5^+CD19^+ B-cells.
as §1, §2

CD19-positive B-cell = assay: Annexin V apoptosis of normal B-lymphocytes in PBMCs; type: cell-based, human; settings: 72 hours
Procedure: as §4

[4] = tested on: CD34+ hematopoietic progenitor cells (erythroid colonies); assay: Colony formation assay, erythroid colonies; type: cell-based, human; settings: Homo sapiens, 336 h, read-out: mean IC50 for normal erythroid colony formation
Procedure: as §3

[5] = read-out: IC50 for suppression of mitogen-induced proliferation, Con A, 96 hours
[6] = read-out: IC50 for suppression of mitogen-induced proliferation, PHA, 96 hours
[7] = read-out: IC50 for suppression of mitogen-induced proliferation, PMA/Iono, 96 hours
[8] = read-out: IC50 for suppression of mitogen-induced proliferation, PWM, 96 hours
[9] = read-out: IC50 for suppression of mitogen-induced proliferation, α-CD3, 96 hours
[10] = Con A, 96 hours, read-out: IC50 for suppression of mitogen-induced proliferation
[11] = PWM, 96 hours, read-out: IC50 for suppression of mitogen-induced proliferation
[12] = mean, PBMCs from healthy blood donors (n = 3-6)

Compound	Therapeutic Index (PBMC ED50/CLL ED50) (normal PBMCs [1])	IC50 (normal PBMCs [2]; [5])	IC50 (normal PBMCs [2]; [6])	IC50 (normal PBMCs [2]; [7])	IC50 (normal PBMCs [2]; [8])	IC50 (normal PBMCs [2]; [9])	EC50 (normal PBMCs [1])	IC50 (normal PBMCs [2]; [10])	IC50 (normal PBMCs [2]; [11])	EC50 (normal PBMCs [1]; [12])	also measured
4-hydroperoxycyclophosphamide [Cyclophosphamide/4-HC]	1.7	–	–	–	–	–	–	–	–	–	–
Cn1c(CCCC(=O)O)nc2cc(N(CCCl)CCCl)ccc21 [Bendamustine, bendamustine]	29.2	16 µM	17 µM	35 µM	14 µM	20 µM	146 µM	–	–	–	–
O=C(O)CCCc1ccc(N(CCCl)CCCl)cc1 [Chlorambucil]	22.6	12 µM	11 µM	7 µM	7.5 µM	12.5 µM	67.7 µM	–	–	–	–
Nc1nc(Cl)nc2c1ncn2[C@H]1C[C@H](O)[C@@H](CO)O1 [Cladribine, cladribine]	10	–	–	–	–	–	–	0.15 µM	0.1 µM	0.1 µM	–
Nc1nc(F)nc2c1ncn2[C@@H]1O[C@H](COP(=O)(O)O)[C@@H](O)[C@@H]1O [Fludarabine, fludarabine phosphate, reference compound]	2.6	–	–	–	–	–	–	< 3 µM	< 3 µM	3.1 µM	IC50 (normal PBMCs [2]; PHA, 96 hours, read-out: IC50 for suppression of mitogen-induced proliferation): < 3 µM; IC50 (normal PBMCs [2]; PMA/Iono, 96 hours, read-out: IC50 for suppression of mitogen-induced proliferation): 0.8 µM; IC50 (normal PBMCs [2]; α-CD3, 96 hours, read-out: IC50 for suppression of mitogen-induced proliferation): < 3 µM; IC50 [3]: 1 µM; apoptosis in normal T-cells (CD3-positive T-cell; 0.4 μM): caused significant apoptosis; average percent drug-specific apoptosis, T-cells (CD3-positive T-cell; 1 μM, n=3): 81%; EC50 (CLL cells; read-out: Median ED50 of fludarabine, 62 nM of LMP-420 added, 72 hours, 21 patient samples): 0.252 µM; EC50 (CLL cells; read-out: Median ED50 of fludarabine, 250 nM of LMP-420 added, 72 hours, 21 patient samples): 0.125 µM; EC50 (CLL cells; read-out: Median ED50 of fludarabine, no LMP-420 added, 72 hours, 21 patient samples): 0.978 µM; apoptosis in normal B-cells (CD19-positive B-cell; 0.4 μM): caused significant apoptosis; average percent drug-specific apoptosis, B-cells (CD19-positive B-cell; 1 μM, n=3): 70%; IC50 [4]: 5 µM
